One test deals with mTORC1 (Homo sapiens (Human), UniProt P42345+P62942). As to the kind of experiment: mTORC1 inhibition, AlphaLISA of Phospho-p70 S6 kinase (p70S6K pT389) in PC-3 cells. The conditions noted are these: inhibition of p70S6K pT389 levels. The test is classed as cell-based. Background: Bead proximity is the source of the signal in Alpha formats.
Test [1] concerns the target FKBP51 / FRB ternary complex (Homo sapiens (Human), UniProt P42345+Q13451). Nature of the test: SPR assay to characterize ternary complex formation with FKBP51 (FRB binding to rapalog-saturated FKBP51). The conditions noted are these: FRB dilutions with 100 nM rapalog on immobilized FKBP51. On the procedure: Example 31: SPR Assay to Characterize Ternary Complex Formation with FKBP51
(§1) Biotinylated avi-FKBP51 was immobilized on a streptavidin chip (Cytiva Series S SA) using a Biacore 8K or 8 k+ (Cytiva). To achieve an immobilization level of 200 RU, 0.6 μg/ml biotinylated avi-FKBP51 were injected for 150 sec at a flow rate of 10 μl/min. Serial dilution of FRB was prepared (12 concentrations, 3-fold dilutions, 0.00011-20 μM) and supplemented with 100 nM of rapalog. A-B-A injection mode was used to ensure saturation immobilized […] with respective rapalog. 100 nM solution of the respective rapalog was injected before FRB injection for 120 sec and during dissociation for 420 sec. The FRB dilutions were then injected 120 seconds contact time with increasing concentrations. […] 50 mM HEPES pH 7.5, 150 mM NaCl, 2 mM MgCl2, 1 mM DTT, 0.05% Tween-20, 1% DMSO was used as running buffer at a flow rate of 30 μl/min. The multi-cycle kinetics data were fit to a 1:1 binding model to measure the association rate ka (1/Ms), the dissociation rate kd (1/s) and the affinity Kd (M). In case of fast association and dissociation, steady state affinity analysis following the law of mass action was used to determine the affinity Kd (M).

The target in a further test is FKBP51 (Homo sapiens (Human), UniProt Q13451). Nature of the test: SPR assay to determine binding affinity to FKBP51 (direct binding). The following applies: immobilized biotinylated avi-FKBP51. On the procedure: Example 29: SPR Assay to Determine Binding Affinity to FKBP51
Biotinylated avi-FKBP51 was immobilized on a streptavidin chip (Cytiva Series S SA) using a Biacore 8K or 8 k+ (Cytiva). To achieve an immobilization level of 2000 RU, 3 μg/ml biotinylated avi-FKBP51 were injected for 360 sec at a flow rate of 10 μl/min. Rapalogs were diluted in DMSO to 100× working concentration. Each Rapalog was 100-fold diluted in 50 mM HEPES pH 7.5, 150 mM NaCl, 2 mM MgCl2, 1 mM DTT, 0.05% Tween-20 and a serial dilution prepared (8 concentrations, 3-fold dilutions, 0.5-1000 nM). […] The compound dilutions were then injected at 100 uL/min for 120 seconds contact time and with 3600 seconds dissociation time with increasing concentrations. 50 mM HEPES pH 7.5, 150 mM NaCl, 2 mM MgCl2, 1 mM DTT, 0.05% Tween-20, 1% DMSO was used as running buffer. Multi-cycle kinetics data were fit to a 1:1 binding model to measure the association rate ka (1/Ms), the dissociation rate kd (1/s) and the affinity Kd (M).
On the technique in general: Surface plasmon resonance follows binding to a sensor surface in real time, without labels.

A further test deals with FKBP12 (Homo sapiens (Human), UniProt P62942). As to the kind of experiment: SPR assay to determine binding affinity to FKBP12 (direct binding). The conditions noted are these: immobilized biotinylated avi-FKBP12. The procedure: SPR Assay to Determine Binding Affinity to FKBP12.
Biotinylated avi-FKBP12 was immobilized on a streptavidin chip (Cytiva Series S SA) using a Biacore 8K or 8 k+ (Cytiva). To achieve an immobilization level of 1000 RU, 2 μg/ml biotinylated avi-FKBP12 were injected for 100 sec at a flow rate of 10 μl/min. Rapalogs were diluted in DMSO to 100× working concentration. Each Rapalog was 100-fold diluted in 50 mM HEPES pH 7.5, 150 mM NaCl, 2 mM MgCl2, 1 mM DTT, 0.05% Tween-20 and a serial dilution prepared (9 concentrations, 3-fold dilutions, 0.08-500 nM). […] The compound dilutions were then injected at 100 uL/min for 120 seconds contact time in sequence with increasing concentrations. Dissociation was monitored for 3600 seconds. 50 mM HEPES pH 7.5, 150 mM NaCl, 2 mM MgCl2, 1 mM DTT, 0.05% Tween-20, 1% DMSO was used as running buffer. The single-cycle kinetics data were fit to a 1:1 binding model to measure the association rate ka (1/Ms), the dissociation rate kd (1/s) and the affinity Kd (M).

The target of a further test is mTORC2 (Homo sapiens (Human), UniProt P42345+P62942). As to the kind of experiment: mTORC2 inhibition, AlphaLISA of Phospho-AKT (pAKT pS473) in PC3 cells. The test is classed as cell-based. On the procedure: Example 32: mTORC1 Inhibition, mTORC2 Inhibition, Cell Lysis, AlphaLISA Experiments, and Data Analysis
mTORC2 inhibition was determined via analysis of phosphorylation level of Phospho-AKT (pAKT pS473) with the corresponding AlphaLISA kit (PerkinElmer, Alpha SF Ultra™ Multiplex p-AKT1/2/3(Ser473)/Total AKT1). PC3 cells were plated on 96 well plates in assay medium (DMEM: Ham's F12, basic (CLS Cell Lines Service GmbH, Cat #820400a), supplemented with additional 10% FBS at 1.20E+06 cells/mL and incubated over-night at 37° C., 5% CO2. On the following day, cells were treated with assay medium (10% FBS) containing increasing compound concentrations (12 points at 3-fold dilutions) and incubated for 6 hours at 37° C., 5% CO2. Thereafter, medium was aspirated and cells were rinsed with PBS. In the following, cells were treated with compound dilutions in starvation medium (DMEM: Ham's F12, basic; without FBS) for further 18 h at 37° C., 5% CO2. Then, immediately prior to cell lysis, cells were treated with 12% FBS for 15 min.
After performing experiments according to mTORC1 and mTORC2 protocols, cells were harvested in lysis buffer supplied with the AlphaLISA kits, additionally enriched with Roche cOmplete™ Protease Inhibitor Cocktail (Cat #CO-RO). Thus, cells were lysed using 50 μL of the lysis buffer and incubated for 60 min at 4° C. while shaking. After centrifugation at 4000 rpm for 5 min, experiments were performed according to the AlphaLISA manufacturer's protocol.
Ten microliters of cell lysates were mixed with the acceptor mix. After incubation for 2 h at room temperature, the donor mix was added. After additional incubation at room temperature for 2 hours, AlphaLISA signal was read on PHERAstar® FSX (BMG Labtech) with AlphaPLEX module.
EC50 values were calculated by ExcelFit standard algorithm.

In test [2] the target is FKBP12 / FRB ternary complex (Homo sapiens (Human), UniProt P42345+P62942). Nature of the test: SPR assay to characterize ternary complex formation with FKBP12 (FRB binding to rapalog-saturated FKBP12). The following applies: FRB dilutions with 100 nM rapalog on immobilized FKBP12. On the procedure:
Example 30: SPR Assay to Characterize Ternary Complex Formation with FKBP12
as §1, with “Biotinylated avi-FKBP12” for “Biotinylated avi-FKBP51”, “of 100” for “of 200”, “RU, 0.3” for “RU, 0.6”, “biotinylated avi-FKBP12” for “biotinylated avi-FKBP51”, “for 80” for “for 150”

Consider eight molecules from US11603377B2, “MTORC1 modulators and uses thereof” (Aeovian Pharmaceuticals, Inc., priority 2020, dated 2023).

What is called IC50 is the concentration at which inhibition is half-maximal. Broadly, the Kd is a measure of binding affinity in units of concentration. Low readings indicate higher affinity, high ones lower affinity.

Chain of FKBP12 (P62942 whole entry): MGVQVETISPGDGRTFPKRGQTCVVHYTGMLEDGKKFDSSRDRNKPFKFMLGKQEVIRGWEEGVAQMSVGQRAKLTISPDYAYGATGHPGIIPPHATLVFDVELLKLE
Chain of FKBP51 (Q13451 whole entry): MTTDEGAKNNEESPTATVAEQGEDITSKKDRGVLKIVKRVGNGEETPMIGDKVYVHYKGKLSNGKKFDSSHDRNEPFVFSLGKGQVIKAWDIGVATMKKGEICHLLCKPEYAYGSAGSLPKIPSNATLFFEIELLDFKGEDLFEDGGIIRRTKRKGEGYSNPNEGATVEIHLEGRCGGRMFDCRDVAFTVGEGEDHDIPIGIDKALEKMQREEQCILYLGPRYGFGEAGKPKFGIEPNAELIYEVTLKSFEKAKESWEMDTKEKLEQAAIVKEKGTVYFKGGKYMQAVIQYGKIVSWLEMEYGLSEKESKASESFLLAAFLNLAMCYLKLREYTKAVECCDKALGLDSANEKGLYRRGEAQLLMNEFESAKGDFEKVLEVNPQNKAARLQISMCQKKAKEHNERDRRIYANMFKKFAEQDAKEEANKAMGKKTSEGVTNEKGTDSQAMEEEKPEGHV

In the case of `COCCOCCS(=O)(=O)N[C@@H]1C[C@@H]2CC[C@@H](C)[C@@](O)(O2)C(=O)C(=O)N2CCCC[C@H]2C(=O)O[C@H]([C@H](C)C[C@@H]2CC[C@@H](O)[C@H](OC)C2)CC(=O)[C@H](C)/C=C(\C)[C@@H](O)[C@@H](OC)C(=O)[C@H](C)C[C@H](C)/C=C/C=C/C=C/1C` [Compound 8], the IC50 at mTORC1 is 0.0001 to 0.0008 µM. Moreover, the Kd was 0.3 to 0.8 µM in test [1], 0.01 to 0.1 µM on FKBP51, less than 0.0003 µM at FKBP12 and 0.3 to 0.8 µM in test [2]. The “mTORC2 % inhibition at 1 uM” value on mTORC2 was “B (B>20% and less than 40% inhibition at 1 uM)”.

Molecule `COCCOCCS(=O)(=O)N[C@H]1C[C@@H]2CC[C@@H](C)[C@@](O)(O2)C(=O)C(=O)N2CCCC[C@H]2C(=O)O[C@H]([C@H](C)C[C@@H]2CC[C@@H](O)[C@H](OC)C2)CC(=O)[C@H](C)/C=C(\C)[C@@H](O)[C@@H](OC)C(=O)[C@H](C)C[C@H](C)/C=C/C=C/C=C/1C` [Compound 9] returned an IC50 against mTORC1 of less than 0.0001 µM. For the same molecule, the equilibrium dissociation constant (Kd) in test [1] was less than 0.3 µM; on FKBP51, less than 0.01 µM; on FKBP12 it was less than 0.0003 µM; in test [2], less than 0.3 µM. The “mTORC2 % inhibition at 1 uM” value on mTORC2 was “C (C≥40% and less than 60% inhibition at 1 uM)”.

As to `COC1C(=O)C(C)CC/C=C/C=C/C=C(\C)[C@H](NS(=O)(=O)CCO)C[C@H]2CC[C@H](C)[C@](O)(O2)C(=O)C(=O)N(C)C(C)C(=O)OC([C@H](C)C[C@@H]2CC[C@@H](OC3CC3)[C@H](OC)C2)CC(=O)C(C)/C=C(\C)C1O` (stereo partly drawn) [Compound 10], the IC50 against mTORC1 was in the range of 0.0001 to 0.0008 µM. For the same molecule, the Kd lay within 0.3 to 0.8 µM in test [1], 0.01 to 0.1 µM on FKBP51, 0.0003 to 0.001 µM at FKBP12 and 0.3 to 0.8 µM in test [2]. Moreover, at mTORC2, the “mTORC2 % inhibition at 1 uM” value was “A (A ≤20% inhibition at 1 micro Molar (uM))”.

`COC1C(=O)C(C)CC/C=C/C=C/C=C(\C)[C@@H](NS(=O)(=O)CCO)C[C@H]2CC[C@H](C)[C@](O)(O2)C(=O)C(=O)N(C)C(C)C(=O)OC([C@H](C)C[C@@H]2CC[C@@H](OC3CC3)[C@H](OC)C2)CC(=O)C(C)/C=C(\C)C1O` (stereo partly drawn) [Compound 11] came in with an IC50 at mTORC1 of 0.0001 to 0.0008 µM. Also, the dissociation constant Kd in test [1] was 0.3 to 0.8 µM; on FKBP51 it was 0.01 to 0.1 µM; on FKBP12 it was 0.0003 to 0.001 µM; in test [2] it was 0.3 to 0.8 µM. Further, the “mTORC2 % inhibition at 1 uM” value at mTORC2 is recorded as “A (A ≤20% inhibition at 1 micro Molar (uM))”.

As for `CCOC(=O)CS(=O)(=O)NC1C[C@H]2CC[C@H](C)[C@](O)(O2)C(=O)C(=O)N(C)C(C)C(=O)OC([C@H](C)C[C@@H]2CC[C@@H](OC3CC3)[C@H](OC)C2)CC(=O)C(C)/C=C(\C)C(O)C(OC)C(=O)C(C)CC/C=C/C=C/C=C/1C` (stereo partly drawn) [Compound 12], the IC50 against mTORC1 is more than 0.0008 µM. The Kd in test [1] lay in the range of 0.3 to 0.8 µM; at FKBP51, 0.01 to 0.1 µM; on FKBP12, 0.0003 to 0.001 µM; in test [2] it was 0.3 to 0.8 µM. Moreover, on mTORC2, the “mTORC2 % inhibition at 1 uM” value is given as “A (A ≤20% inhibition at 1 micro Molar (uM))”.

Turning to `COC1C(=O)C(C)CC/C=C/C=C/C=C(\C)C(NS(=O)(=O)CCCS(=O)(=O)O)C[C@H]2CC[C@H](C)[C@](O)(O2)C(=O)C(=O)N(C)C(C)C(=O)OC([C@H](C)C[C@@H]2CC[C@@H](OC3CC3)[C@H](OC)C2)CC(=O)C(C)/C=C(\C)C1O` (stereo partly drawn) [Compound 18], the IC50 on mTORC1 lay in the range of 0.0001 to 0.0008 µM. In addition, the Kd was in the range of 0.3 to 0.8 µM in test [1], 0.01 to 0.1 µM on FKBP51, 0.0003 to 0.001 µM on FKBP12 and 0.3 to 0.8 µM in test [2]. At mTORC2, the “mTORC2 % inhibition at 1 uM” value is reported as “A (A ≤20% inhibition at 1 micro Molar (uM))”.

Take `CO[C@@H]1C[C@H](C[C@@H](C)[C@@H]2CC(=O)[C@H](C)/C=C(\C)[C@@H](O)[C@@H](OC)C(=O)[C@H](C)C[C@H](C)/C=C/C=C/C=C(\C)[C@H](NS(=O)(=O)CC3CCCCC3)C[C@@H]3CC[C@@H](C)[C@@](O)(O3)C(=O)C(=O)N3CCCC[C@H]3C(=O)O2)CC[C@H]1O` [Compound 19]: the IC50 on mTORC1 was more than 0.0008 µM. The Kd was more than 0.8 µM in test [1], more than 0.1 µM at FKBP51, 0.0003 to 0.001 µM on FKBP12 and more than 0.8 µM in test [2]. Moreover, at mTORC2, the “mTORC2 % inhibition at 1 uM” value is “B (B>20% and less than 40% inhibition at 1 uM)”.

`CO[C@@H]1C[C@H](C[C@@H](C)[C@@H]2CC(=O)[C@H](C)/C=C(\C)[C@@H](O)[C@@H](OC)C(=O)[C@H](C)C[C@H](C)/C=C/C=C/C=C(\C)[C@@H](NS(=O)(=O)CC3CCCCC3)C[C@@H]3CC[C@@H](C)[C@@](O)(O3)C(=O)C(=O)N3CCCC[C@H]3C(=O)O2)CC[C@H]1O` [Compound 20]: the IC50 at mTORC1 was in the range of 0.0001 to 0.0008 µM. The Kd in test [1] was more than 0.8 µM; at FKBP51, more than 0.1 µM; on FKBP12 it was less than 0.0003 µM; in test [2], 0.3 to 0.8 µM. In addition, on mTORC2, the “mTORC2 % inhibition at 1 uM” value was “B (B>20% and less than 40% inhibition at 1 uM)”.
